These results are taken from patent EP0989983B1 (SCHERING CORPORATION, priority 1997, dated 1998).

“And” between values parts separate entries of the source, which are not always exact repeats. Equal entries are not always repeated.

The experiment concerns the target farnesyl protein transferase (Homo sapiens, UniProt P49354+P49356). Kind of experiment: FPT IC50, inhibition of farnesyl protein transferase, in vitro enzyme assay (procedure of WO 95/10516). The class given is biochemical. As to conditions: several values in a cell are repeat determinations, read-out: FPT C50. As for the experimental part:
FPT IC50 (inhibition of farnesyl protein transferase, in vitro enzyme assay). and COS Cell IC50 (Cell-Based Assay) were determined following the assay procedures described in WO 95/10516, published April 20, 1995. GGPT IC50 (inhibition of geranylgeranyl protein transferase, in vitro enzyme assay), Cell Mat Assay, and anti-tumor activity (in vivo anti-tumor studies) could be determined by the assay procedures described in WO 95/10516. The disclosure of WO 95/10516 is incorporated herein by reference thereto.
In the case of `O=C(NCCCN1CCCC1=O)C1CN(C2c3ncc(Br)cc3CCc3cc(Cl)cc(Br)c32)CCN1` (stereo not drawn) [Compound 216, 4-(3,10-DIBROMO-8-CHLORO-6,11-DIHYDRO-5H-BENZO[5,6] CYCLOHEPTA[1,2-b]PYRIDIN-11-YL)-N-[3-(2-OXO-1-PYRROLIDINYL)PROPYL]-2-PIPERAZINECARBOXAMIDE], the IC50 is > 150 nM. Regarding `COCC(=O)N1CCN(C2c3ncc(Br)cc3CCc3cc(Cl)cc(Br)c32)CC1C(=O)NCCCN1CCCC1=O` (stereo not drawn) [Compound 218], the IC50 worked out at 48 nM. With `O=C(NCCc1c[nH]cn1)C1CN(C2c3ccc(Cl)cc3CCc3cc(Br)cnc32)CCN1C(=O)NC1CCCCC1` (stereo not drawn) [Compound 227], the IC50 was 7.2 nM and 6.7 nM.
